Experimental data published in ChEMBL document CHEMBL4813957, “Antitubercular properties of thiazolidin-4-ones - A review” (Eur J Med Chem, 2021).
In brackets after ≈: the same amount, converted by molar mass.

system: Mycobacterium tuberculosis; assay: Antimycobacterial activity against Mycobacterium tuberculosis H37Rv ATCC 27294 incubated for 5 days by microplate alamar blue assay; format: functional; conditions: H37Rv ATCC 27294, 120 h, time 5 day

Which MIC does the source give for `O=C(NN1C(=O)CSC1c1ccccc1O)c1ccncc1` (stereo not given) here?
Its MIC is 0.62 µg/mL (≈ 1.97 µM).

For `COc1ccc(C2SCC(=O)N2NC(=O)c2ccncc2)cc1` (stereo not given), which MIC is on record?
The MIC was 1.25 µg/mL (≈ 3.79 µM).

`CN(C)c1ccc(C2SCC(=O)N2NC(=O)c2ccncc2)cc1` (stereo not given) was tested. Which MIC did it give?
The MIC was 5 µg/mL (≈ 14.6 µM).

Which MIC does the source give for `O=C(NN1C(=O)CSC1c1ccc([N+](=O)[O-])cc1)c1ccncc1` (stereo not given) here?
The MIC was 3.12 µg/mL (≈ 9.06 µM).

system: Mycobacterium tuberculosis; assay: Antimycobacterial activity against Mycobacterium tuberculosis H37Rv incubated for 7 days by microplate alamar blue assay; format: functional; conditions: 168 h, time 7 day

How did the MIC turn out when `COc1ccc(C2SCC(=O)N2c2nnc(S)s2)cc1OC` (stereo not given) was run?
The MIC was 1.6 µg/mL (≈ 4.5 µM).

With `Cc1ccc(C2SCC(=O)N2c2n[nH]c(=S)s2)cc1` (stereo not given) as the compound, how does the MIC read?
The MIC was 12.5 µg/mL (≈ 40.4 µM).

With `COc1ccc(C2SCC(=O)N2c2n[nH]c(=S)s2)cc1` (stereo not given) as the compound, how does the MIC read?
The MIC was 6.25 µg/mL (≈ 19.2 µM).

How did the MIC turn out when `O=C1CSC(c2ccc(O)cc2)N1c1nnc(S)s1` (stereo not given) was run?
Its MIC is 12.5 µg/mL (≈ 40.1 µM).

system: Mycobacterium tuberculosis; assay: Antimycobacterial activity against Mycobacterium tuberculosis H37Rv ATCC […] by microplate alamar blue assay; format: functional; conditions: 168 h, time 7 day

How did the MIC turn out when `O=C1CSC(c2ccccc2O)N1C1=NN2C(=CSC2c2ccc(O)cc2)S1` (stereo not given) was run?
Its MIC is 3.12 µg/mL (≈ 7.26 µM).

With `O=C1CSC(c2ccccc2)N1C1=NN2C(=CSC2c2ccccc2)S1` (stereo not given) as the compound, how does the MIC read?
Its MIC is 6.25 µg/mL (≈ 15.7 µM).

How did the MIC turn out when `Cc1ccc(C2SC=C3SC(N4C(=O)CSC4c4ccc(C)cc4)=NN32)cc1` (stereo not given) was run?
The MIC was 1.6 µg/mL (≈ 3.76 µM).

With `CN(C)c1ccc(C2SC=C3SC(N4C(=O)CSC4c4ccccc4)=NN32)cc1` (stereo not given) as the compound, how does the MIC read?
Its MIC is 6.25 µg/mL (≈ 14.2 µM).

For `O=C1CSC(c2ccc(Cl)cc2)N1C1=NN2C(=CSC2c2ccccc2)S1` (stereo not given), which MIC is on record?
The MIC was 3.12 µg/mL (≈ 7.22 µM).

system: Mycobacterium tuberculosis; assay: Antimycobacterial activity against Mycobacterium tuberculosis H37Rv assessed as bacterial inhibition at 25 ug/ml by microplate alamar blue assay relative to control; format: functional; conditions: not given

`CCCCCCCCCCCCN1C(=O)C(CC(=O)O)SC12CCN(C(=O)OC(C)(C)C)CC2` (stereo not given) was tested. Which inhibition at 25 µg/mL did it give?
Its inhibition at 25 µg/mL is 96%.

Which inhibition at 25 µg/mL does the source give for `CCCCCCCCCCCCN1C(=O)C(CC(=O)O)SC12CCCCCC2` (stereo not given) here?
Its inhibition at 25 µg/mL is 96%.

How did the inhibition at 25 µg/mL turn out when `CCCCCCCCCCCCN1C(=O)C(CC(=O)O)SC12CCN(C(=O)C(N)CCCCN)CC2` (stereo not given) was run?
Its inhibition at 25 µg/mL is 96%.

`CCCCCCCCCCCCN1C(=O)C(CC(=O)O)SC12CCCC2` (stereo not given) was tested. Which inhibition at 25 µg/mL did it give?
Its inhibition at 25 µg/mL is 97%.

Which inhibition at 25 µg/mL does the source give for `CCCCCCCCCCCCN1C(=O)C(CC(=O)O)SC12CCCCCCCC2` (stereo not given) here?
Its inhibition at 25 µg/mL is 96%.

For `CCCCCCCCCCCCN1C(=O)C(CC(=O)O)SC12CCCCC2` (stereo not given), which inhibition at 25 µg/mL is on record?
Its inhibition at 25 µg/mL is 97%.

With `CCCCCCCCN1C(=O)CSC12CCCCC2` as the compound, how does the inhibition at 25 µg/mL read?
Its inhibition at 25 µg/mL is 96%.

Which inhibition at 25 µg/mL does the source give for `CCCCCCCCCCCCN1C(=O)C(CC(=O)O)SC12CCN(C(=O)C(N)C(C)CC)CC2` (stereo not given) here?
The inhibition at 25 µg/mL was 97%.

For `CCCCCCCCCCCCN1C(=O)C(CC(=O)O)SC12CCC(C(C)(C)C)CC2` (stereo not given), which inhibition at 25 µg/mL is on record?
The inhibition at 25 µg/mL was 96%.

system: Mycobacterium tuberculosis; assay: Antimycobacterial activity against Mycobacterium tuberculosis H37Ra 7131 incubated for 21 days by broth dilution method; format: functional; conditions: H37Ra 7131, 504 h, time 21 day

How did the MIC turn out when `C=CC/N=C1\SC(=O)C(=O)N1NC(=O)c1ccncc1` was run?
The MIC was 19.5 µg/mL (≈ 67.2 µM).

Which MIC does the source give for `N=C1SC(Br)(C(Br)c2ccccc2)C(=O)N1NC(=O)c1ccncc1` (stereo not given) here?
The MIC was 13 µg/mL (≈ 26.8 µM).

For `Cc1ccc(/C=C2\SC(=N)N(NC(=O)c3ccncc3)C2=O)cc1`, which MIC is on record?
The MIC was 13 µg/mL (≈ 38.4 µM).

Which MIC does the source give for `Cc1cccc(/N=C2\SC(=O)C(=O)N2NC(=O)c2ccncc2)c1` here?
Its MIC is 19.5 µg/mL (≈ 57.3 µM).

`N=C1SC(Br)(C(Br)c2ccc([N+](=O)[O-])cc2)C(=O)N1NC(=O)c1ccncc1` (stereo not given) was tested. Which MIC did it give?
The MIC was 11 µg/mL (≈ 20.8 µM).

How did the MIC turn out when `N=C1S/C(=C\c2ccccc2)C(=O)N1NC(=O)c1ccncc1` was run?
Its MIC is 12 µg/mL (≈ 37 µM).

How did the MIC turn out when `CC/N=C1\SC(=O)C(=O)N1NC(=O)c1ccncc1` was run?
The MIC was 19.5 µg/mL (≈ 70.1 µM).

With `Cc1ccc(/N=C2\SC(=O)C(=O)N2NC(=O)c2ccncc2)cc1` as the compound, how does the MIC read?
Its MIC is 78 µg/mL (≈ 229 µM).

system: Mycobacterium tuberculosis; assay: Antimycobacterial activity against Mycobacterium tuberculosis H37Rv measured after 14 days by test tube dilution technique; format: functional; conditions: 336 h, time 14 day

For `O=C(COc1cnccn1)N/N=C1/SCC(=O)N1c1ccc(Cl)cc1`, which MIC is on record?
The MIC was greater than 100 µg/mL.

How did the MIC turn out when `CC(C)(C)N1C(=O)CS/C1=N/NC(=O)COc1cnccn1` was run?
The MIC was greater than 100 µg/mL.

`O=C(COc1cnccn1)N/N=C1/SCC(=O)N1c1ccc(Cl)cc1[N+](=O)[O-]` was tested. Which MIC did it give?
Its MIC is 85 µg/mL (≈ 201 µM).

For `CCOc1ccc(N2C(=O)CS/C2=N/NC(=O)COc2cnccn2)cc1`, which MIC is on record?
The MIC was greater than 100 µg/mL.

How did the MIC turn out when `CCCCN1C(=O)CS/C1=N/NC(=O)COc1cnccn1` was run?
The MIC was greater than 100 µg/mL.

With `O=C(COc1cnccn1)N/N=C1/SCC(=O)N1c1ccc(Cl)cc1Cl` as the compound, how does the MIC read?
Its MIC is greater than 100 µg/mL.

Which MIC does the source give for `CC(C)N1C(=O)CS/C1=N/NC(=O)COc1cnccn1` here?
The MIC was greater than 100 µg/mL.

system: Mycobacterium tuberculosis; assay: Antimycobacterial activity against Mycobacterium tuberculosis H37Rv measured after 21 days by test tube dilution technique; format: functional; conditions: 504 h, time 21 day

`O=C(COc1cnccn1)N/N=C1/SCC(=O)N1c1ccc(Cl)cc1` was tested. Which MIC did it give?
Its MIC is greater than 100 µg/mL.

How did the MIC turn out when `CC(C)(C)N1C(=O)CS/C1=N/NC(=O)COc1cnccn1` was run?
The MIC was greater than 100 µg/mL.

With `O=C(COc1cnccn1)N/N=C1/SCC(=O)N1c1ccc(Cl)cc1[N+](=O)[O-]` as the compound, how does the MIC read?
The MIC was 89 µg/mL (≈ 210 µM).

For `CCOc1ccc(N2C(=O)CS/C2=N/NC(=O)COc2cnccn2)cc1`, which MIC is on record?
Its MIC is greater than 100 µg/mL.

For `CCCCN1C(=O)CS/C1=N/NC(=O)COc1cnccn1`, which MIC is on record?
Its MIC is greater than 100 µg/mL.

How did the MIC turn out when `O=C(COc1cnccn1)N/N=C1/SCC(=O)N1c1ccc(Cl)cc1Cl` was run?
The MIC was greater than 100 µg/mL.

Which MIC does the source give for `CC(C)N1C(=O)CS/C1=N/NC(=O)COc1cnccn1` here?
Its MIC is greater than 100 µg/mL.

system: Mycobacterium tuberculosis; assay: Antimycobacterial activity against Mycobacterium tuberculosis H37Ra ATCC 25177 incubated for 7 days by microplate alamar blue assay; format: functional; conditions: H37Ra ATCC 25177, 168 h, time 7 day

How did the MIC turn out when `COc1cc(/C=N/NC(=S)Nc2cccc(Cl)c2)ccc1OC(=O)CC1SC(=O)NC1=O` (stereo not given) was run?
The MIC was 2 µg/mL (≈ 4.06 µM).

How did the MIC turn out when `COc1cc(/C=N/NC(=S)Nc2cccc(Cl)c2)ccc1OC(=O)/C=C1\SC(=O)NC1=O` was run?
Its MIC is 2 µg/mL (≈ 4.07 µM).

With `COc1cc(/C=N/NC(=S)Nc2ccccc2)ccc1OC(=O)/C=C1\SC(=O)NC1=O` as the compound, how does the MIC read?
Its MIC is 2 µg/mL (≈ 4.38 µM).

With `COc1cc(/C=N/NC(=S)Nc2ccc(Cl)cc2)ccc1OC(=O)CC1SC(=O)NC1=O` (stereo not given) as the compound, how does the MIC read?
Its MIC is 2 µg/mL (≈ 4.06 µM).

For `O=C(CC1SC(=O)NC1=O)Oc1ccc(/C=N/NC(=S)Nc2ccc(Cl)cc2)cc1` (stereo not given), which MIC is on record?
Its MIC is 2 µg/mL (≈ 4.32 µM).

`COc1cc(/C=N/NC(=S)Nc2ccccc2)ccc1OC(=O)CC1SC(=O)NC1=O` (stereo not given) was tested. Which MIC did it give?
The MIC was 2 µg/mL (≈ 4.36 µM).
